Data on one molecule can be found in US20260373135A1, “Methods of Treatment with Tradipitant” (Vanda Pharmaceuticals Inc., priority 2022, published 2026).

Molecules are shown by their SMILES.

The subject of one series is NK-1 receptors. The note with it: preclinical and clinical studies; cited from earlier work.
Series [1] can be described thus: Human metabolism of tradipitant in vitro and in vivo. From the text: Factors affecting metabolic clearance of tradipitant and its metabolites impact an individual's exposure to the parent compound, as well as any active metabolites.

For `O=C(c1ccccc1Cl)c1cccnc1-c1nnn(Cc2cc(C(F)(F)F)cc(C(F)(F)F)c2)c1-c1ccncc1` [tradipitant, {2-[1-(3,5-Bistrifluoromethylbenzyl)-5-pyridin-4-yl-1H-[1,2,3]triazol-4-yl]-pyridin-3-yl}-(2-chlorophenyl)-methanone], in the series on NK-1 receptors, the “blockade of brain NK-1 receptors” value is listed as “long-lasting blockade of brain NK-1 receptors”. For the same molecule, in series [1], the human metabolic pathways entry is “ketone reduction (metabolites M2, M4), N-glucuronidation (metabolite M8), pyridine N-oxidation (metabolites M3, M4), and glucuronidation (metabolite M8)”.
